Active and inactive are the calls of the source. A value given as a limit tells only on which side of the number the result lay.

In assay [1] the target is T1, 1-phosphatidylinositol 4,5-bisphosphate phosphodiesterase beta-3 (Homo sapiens, UniProt Q01970).
T1 sequence (Q01970 whole entry): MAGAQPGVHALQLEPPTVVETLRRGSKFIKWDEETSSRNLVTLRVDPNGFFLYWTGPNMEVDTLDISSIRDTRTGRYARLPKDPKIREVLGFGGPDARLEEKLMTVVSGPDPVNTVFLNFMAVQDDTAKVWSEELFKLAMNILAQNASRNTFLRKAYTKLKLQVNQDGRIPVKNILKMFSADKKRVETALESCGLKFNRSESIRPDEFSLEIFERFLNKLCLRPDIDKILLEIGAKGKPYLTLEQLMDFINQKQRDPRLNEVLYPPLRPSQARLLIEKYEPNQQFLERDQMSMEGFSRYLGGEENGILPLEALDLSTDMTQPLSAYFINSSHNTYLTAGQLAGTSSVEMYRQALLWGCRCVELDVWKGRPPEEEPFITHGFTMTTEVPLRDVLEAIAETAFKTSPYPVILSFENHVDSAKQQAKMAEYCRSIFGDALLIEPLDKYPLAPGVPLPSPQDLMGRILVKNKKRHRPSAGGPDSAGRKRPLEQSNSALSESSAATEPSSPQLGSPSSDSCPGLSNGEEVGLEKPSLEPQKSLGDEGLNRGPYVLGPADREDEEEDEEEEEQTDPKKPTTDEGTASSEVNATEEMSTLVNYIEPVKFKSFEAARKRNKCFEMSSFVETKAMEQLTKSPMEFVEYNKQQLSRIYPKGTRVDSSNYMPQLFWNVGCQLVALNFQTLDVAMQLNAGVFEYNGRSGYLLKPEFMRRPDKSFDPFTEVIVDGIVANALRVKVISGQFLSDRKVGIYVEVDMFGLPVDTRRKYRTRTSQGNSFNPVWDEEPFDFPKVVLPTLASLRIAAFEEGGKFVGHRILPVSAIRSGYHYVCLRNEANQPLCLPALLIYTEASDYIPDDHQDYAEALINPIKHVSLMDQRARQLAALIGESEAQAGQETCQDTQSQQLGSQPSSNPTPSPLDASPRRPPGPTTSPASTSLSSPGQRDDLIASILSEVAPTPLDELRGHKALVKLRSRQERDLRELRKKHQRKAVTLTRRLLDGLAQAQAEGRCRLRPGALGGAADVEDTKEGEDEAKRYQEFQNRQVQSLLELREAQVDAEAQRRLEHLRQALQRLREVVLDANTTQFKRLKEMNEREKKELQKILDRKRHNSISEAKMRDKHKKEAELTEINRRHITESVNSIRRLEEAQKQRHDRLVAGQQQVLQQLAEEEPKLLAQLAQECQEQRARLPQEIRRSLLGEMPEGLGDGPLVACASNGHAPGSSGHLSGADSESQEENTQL
Briefly: Fluorescence-based biochemical high throughput dose response assay to identify inhibitors of phospholipase C isozymes (PLC-B3).

The target of assay [2] is Genome polyprotein (dengue virus type 2, UniProt P29990). Briefly: Dengue-2 NS5 methyltransferase inhibitors, primary screen, biochemical, confirmation dose response (AID 588689). The assay is classed as functional.
Genome polyprotein, sequence (P29990 2492-3391 limits assumed): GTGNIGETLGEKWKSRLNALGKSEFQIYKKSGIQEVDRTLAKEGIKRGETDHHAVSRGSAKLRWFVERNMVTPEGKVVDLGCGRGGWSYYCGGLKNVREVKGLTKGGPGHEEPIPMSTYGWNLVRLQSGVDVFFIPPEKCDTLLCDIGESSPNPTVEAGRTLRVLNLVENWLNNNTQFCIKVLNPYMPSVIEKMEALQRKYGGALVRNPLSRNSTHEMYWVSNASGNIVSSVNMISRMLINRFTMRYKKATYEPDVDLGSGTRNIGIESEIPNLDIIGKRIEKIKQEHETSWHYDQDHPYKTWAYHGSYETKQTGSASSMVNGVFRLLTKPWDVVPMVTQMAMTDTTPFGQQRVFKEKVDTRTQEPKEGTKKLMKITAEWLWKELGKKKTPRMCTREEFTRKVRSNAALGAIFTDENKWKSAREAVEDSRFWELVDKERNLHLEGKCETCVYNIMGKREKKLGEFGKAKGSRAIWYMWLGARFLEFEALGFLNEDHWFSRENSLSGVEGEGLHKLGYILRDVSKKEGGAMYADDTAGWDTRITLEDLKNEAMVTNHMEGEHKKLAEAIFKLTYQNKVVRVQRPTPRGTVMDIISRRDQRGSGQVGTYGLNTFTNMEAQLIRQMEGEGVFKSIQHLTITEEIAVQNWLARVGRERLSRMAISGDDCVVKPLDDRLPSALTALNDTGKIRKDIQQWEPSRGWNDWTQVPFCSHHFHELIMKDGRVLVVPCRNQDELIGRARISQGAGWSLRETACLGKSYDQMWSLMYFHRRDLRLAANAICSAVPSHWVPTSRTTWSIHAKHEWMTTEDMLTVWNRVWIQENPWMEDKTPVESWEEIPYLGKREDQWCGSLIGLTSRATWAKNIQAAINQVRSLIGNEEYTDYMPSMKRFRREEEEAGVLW
The target of assay [3] is Serine/threonine-protein kinase Chk2 (Homo sapiens, UniProt O96017). The format is functional.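 Further: CHEK2 entry within a kinome-wide screening panel.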
Serine/threonine-protein kinase Chk2, sequence (O96017 whole entry): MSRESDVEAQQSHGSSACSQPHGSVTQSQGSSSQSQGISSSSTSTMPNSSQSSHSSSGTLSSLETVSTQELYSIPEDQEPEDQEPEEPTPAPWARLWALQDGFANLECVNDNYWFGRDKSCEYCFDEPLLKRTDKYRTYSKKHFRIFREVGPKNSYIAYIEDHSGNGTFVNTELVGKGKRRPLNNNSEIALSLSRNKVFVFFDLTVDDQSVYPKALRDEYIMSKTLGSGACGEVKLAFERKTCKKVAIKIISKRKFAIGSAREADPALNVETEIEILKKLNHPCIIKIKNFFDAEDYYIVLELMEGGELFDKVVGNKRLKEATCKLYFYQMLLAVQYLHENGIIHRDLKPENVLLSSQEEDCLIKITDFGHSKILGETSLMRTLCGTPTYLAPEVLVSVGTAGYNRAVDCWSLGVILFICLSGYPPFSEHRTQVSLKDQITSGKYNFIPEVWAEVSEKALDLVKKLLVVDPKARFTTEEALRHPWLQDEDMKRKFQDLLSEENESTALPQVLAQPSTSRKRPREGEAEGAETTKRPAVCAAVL
In assay [4] the target is Tyrosine-protein kinase receptor TYRO3 (Homo sapiens, UniProt Q06418). The format is functional.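 Further: TYRO3 value obtained as one member of a kinome-wide profiling panel.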
Tyrosine-protein kinase receptor TYRO3, sequence (Q06418 whole entry): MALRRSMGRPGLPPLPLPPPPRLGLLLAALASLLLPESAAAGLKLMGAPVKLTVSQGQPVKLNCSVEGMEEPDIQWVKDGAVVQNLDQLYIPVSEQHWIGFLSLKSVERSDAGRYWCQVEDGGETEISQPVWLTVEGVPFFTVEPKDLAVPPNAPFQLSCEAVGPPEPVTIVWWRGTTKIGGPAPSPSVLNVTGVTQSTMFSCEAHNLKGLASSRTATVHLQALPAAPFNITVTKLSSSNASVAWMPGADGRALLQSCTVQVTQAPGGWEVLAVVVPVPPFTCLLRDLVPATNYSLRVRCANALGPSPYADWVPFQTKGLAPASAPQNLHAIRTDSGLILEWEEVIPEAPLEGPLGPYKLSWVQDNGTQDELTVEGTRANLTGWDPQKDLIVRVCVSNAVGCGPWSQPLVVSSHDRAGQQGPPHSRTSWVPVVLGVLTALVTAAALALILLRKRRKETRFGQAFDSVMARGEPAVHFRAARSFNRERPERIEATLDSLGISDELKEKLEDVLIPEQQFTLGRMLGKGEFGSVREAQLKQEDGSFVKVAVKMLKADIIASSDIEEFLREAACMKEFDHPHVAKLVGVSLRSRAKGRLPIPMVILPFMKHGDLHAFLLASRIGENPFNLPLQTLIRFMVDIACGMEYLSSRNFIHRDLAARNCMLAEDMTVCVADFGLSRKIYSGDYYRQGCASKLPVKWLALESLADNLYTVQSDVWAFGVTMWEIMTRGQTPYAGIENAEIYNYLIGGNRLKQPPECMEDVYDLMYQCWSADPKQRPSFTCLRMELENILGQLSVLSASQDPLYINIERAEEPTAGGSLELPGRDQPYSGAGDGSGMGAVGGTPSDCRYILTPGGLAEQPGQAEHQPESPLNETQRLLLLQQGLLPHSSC
Assay [5] has as its target Testis-specific serine/threonine-protein kinase 1 (Homo sapiens, UniProt Q9BXA7). The format is functional.
The target of assay [6] is BDNF/NT-3 growth factors receptor (Homo sapiens, UniProt Q16620). The assay is classed as functional.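 Further: NTRK2 measured as one member of a broad kinome-wide kinase profiling panel.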
BDNF/NT-3 growth factors receptor, sequence (Q16620 whole entry): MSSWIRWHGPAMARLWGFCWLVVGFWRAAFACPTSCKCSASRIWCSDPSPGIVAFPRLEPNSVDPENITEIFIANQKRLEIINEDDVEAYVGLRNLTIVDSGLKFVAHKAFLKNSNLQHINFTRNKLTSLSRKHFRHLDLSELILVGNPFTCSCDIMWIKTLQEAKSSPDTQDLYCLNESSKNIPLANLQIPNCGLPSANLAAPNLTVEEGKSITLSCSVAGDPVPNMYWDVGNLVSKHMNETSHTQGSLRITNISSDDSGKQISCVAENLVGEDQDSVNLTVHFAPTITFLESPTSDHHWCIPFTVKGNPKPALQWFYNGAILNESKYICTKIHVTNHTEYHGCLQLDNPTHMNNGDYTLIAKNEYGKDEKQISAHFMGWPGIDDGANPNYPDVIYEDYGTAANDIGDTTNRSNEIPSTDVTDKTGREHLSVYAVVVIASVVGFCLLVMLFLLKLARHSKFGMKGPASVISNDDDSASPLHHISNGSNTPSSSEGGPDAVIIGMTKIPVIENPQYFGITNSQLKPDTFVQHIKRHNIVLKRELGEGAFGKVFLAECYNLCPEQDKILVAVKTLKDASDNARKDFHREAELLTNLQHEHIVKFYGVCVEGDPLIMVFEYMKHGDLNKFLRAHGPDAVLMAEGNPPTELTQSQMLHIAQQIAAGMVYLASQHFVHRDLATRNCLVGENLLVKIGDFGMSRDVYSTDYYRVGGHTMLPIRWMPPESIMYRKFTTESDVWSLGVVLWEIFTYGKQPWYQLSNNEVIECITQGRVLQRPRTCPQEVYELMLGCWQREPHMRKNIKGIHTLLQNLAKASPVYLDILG
Assay [7] addresses Ephrin type-A receptor 2 (Homo sapiens, UniProt P29317). The format is functional.
Assay [8] concerns the target Serine/threonine-protein kinase PLK4 (Homo sapiens, UniProt O00444). The assay is classed as functional.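 Further: PLK4 measured as one member of a kinome-wide kinase profiling panel.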
Assay [9] deals with High affinity nerve growth factor receptor (Homo sapiens, UniProt P04629). The format is functional.
Assay [10] has as its target Dual specificity mitogen-activated protein kinase kinase 1 (Homo sapiens, UniProt Q02750). Kind of assay: Navigating the Kinome. Panel member name: MAP2K1. The format is functional.

Serine/threonine-protein kinase PLK4, sequence (O00444 whole entry): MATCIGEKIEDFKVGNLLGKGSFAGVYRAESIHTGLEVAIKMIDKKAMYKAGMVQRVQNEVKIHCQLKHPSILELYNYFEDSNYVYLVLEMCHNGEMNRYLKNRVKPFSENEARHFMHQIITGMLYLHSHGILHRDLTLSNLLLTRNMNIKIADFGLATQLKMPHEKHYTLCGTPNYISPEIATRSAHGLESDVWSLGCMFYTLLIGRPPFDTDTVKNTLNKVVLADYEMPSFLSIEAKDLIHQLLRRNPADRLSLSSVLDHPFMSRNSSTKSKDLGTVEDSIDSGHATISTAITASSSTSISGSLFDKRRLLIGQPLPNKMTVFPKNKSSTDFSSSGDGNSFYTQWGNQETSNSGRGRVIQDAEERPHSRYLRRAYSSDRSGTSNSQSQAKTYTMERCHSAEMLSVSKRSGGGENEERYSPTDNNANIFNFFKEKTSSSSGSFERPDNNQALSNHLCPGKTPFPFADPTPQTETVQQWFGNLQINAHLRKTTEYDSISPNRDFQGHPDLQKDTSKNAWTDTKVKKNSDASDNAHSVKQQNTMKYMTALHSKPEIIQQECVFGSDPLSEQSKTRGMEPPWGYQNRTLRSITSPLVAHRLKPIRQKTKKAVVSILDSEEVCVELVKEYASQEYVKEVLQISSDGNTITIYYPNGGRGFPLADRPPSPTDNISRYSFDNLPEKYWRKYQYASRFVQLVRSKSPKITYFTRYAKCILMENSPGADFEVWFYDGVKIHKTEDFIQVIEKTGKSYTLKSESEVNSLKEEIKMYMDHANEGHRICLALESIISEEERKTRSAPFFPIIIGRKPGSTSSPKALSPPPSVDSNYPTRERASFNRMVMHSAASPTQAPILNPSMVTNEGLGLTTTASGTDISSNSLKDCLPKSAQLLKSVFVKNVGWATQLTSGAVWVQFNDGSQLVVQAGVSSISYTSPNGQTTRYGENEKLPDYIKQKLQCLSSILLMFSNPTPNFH
Dual specificity mitogen-activated protein kinase kinase 1, sequence (Q02750 whole entry): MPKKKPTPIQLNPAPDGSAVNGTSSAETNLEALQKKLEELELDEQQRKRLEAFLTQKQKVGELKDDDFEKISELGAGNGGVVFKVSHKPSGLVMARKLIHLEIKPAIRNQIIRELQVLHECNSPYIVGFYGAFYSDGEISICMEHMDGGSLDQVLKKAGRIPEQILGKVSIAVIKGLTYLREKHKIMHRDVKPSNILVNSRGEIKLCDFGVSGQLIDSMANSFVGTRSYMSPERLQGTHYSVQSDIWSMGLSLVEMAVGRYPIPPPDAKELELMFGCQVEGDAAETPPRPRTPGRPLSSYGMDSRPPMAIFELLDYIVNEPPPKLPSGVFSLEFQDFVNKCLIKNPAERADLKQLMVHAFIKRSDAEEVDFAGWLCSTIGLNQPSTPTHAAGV
Testis-specific serine/threonine-protein kinase 1, sequence (Q9BXA7 whole entry): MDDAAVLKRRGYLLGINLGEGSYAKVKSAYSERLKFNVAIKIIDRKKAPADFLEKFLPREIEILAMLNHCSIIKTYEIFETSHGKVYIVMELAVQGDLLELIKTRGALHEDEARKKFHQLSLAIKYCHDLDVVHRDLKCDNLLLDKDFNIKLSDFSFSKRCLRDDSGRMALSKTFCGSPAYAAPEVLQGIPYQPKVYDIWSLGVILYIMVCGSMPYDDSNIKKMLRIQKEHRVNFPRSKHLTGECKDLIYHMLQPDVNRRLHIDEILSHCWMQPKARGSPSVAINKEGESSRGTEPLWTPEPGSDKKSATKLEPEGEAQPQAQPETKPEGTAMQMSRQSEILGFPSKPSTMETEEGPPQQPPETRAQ

The term IC50 denotes the midpoint of a concentration-inhibition curve. On to `Cc1ccc(/C=C2/C(=O)c3ccc(C(=O)O)cc3C2=O)o1`, for which the results for the IC50 in [1] and in [2] were > 122 µM (inactive) and 40.1 µM (active), respectively.
By Ki is commonly meant the dissociation constant of the complex between target and ligand, obtained from inhibition or displacement. Consider `Clc1cc(NC2CCCCC2)nc(-c2c[nH]c3ncccc23)n1`, for which the inhibitory constant (Ki) in [3] was 0.316 µM (active); in [4] it was > 2.51 µM (inactive); in assay [5] it was 0.251 µM (active); in assay [6], > 5.01 µM (inactive); in [7], > 3.16 µM (inactive); in assay [8], > 3.98 µM (inactive). Also, the values for the Ki in [9] and in assay [10] were > 2.51 µM (inactive) and 0.251 µM (active), respectively.

The values above are taken from ChEMBL document CHEMBL1201862, “PubChem BioAssay data set” (2004).
